According to EP2292587A1, “PHARMACEUTICAL COMPOSITION FOR INHIBITING THE TRANSCRIPTION FACTOR INDUCIBLE BY HYPOXIA, MODULATORS OF PATHOLOGICAL PROCESSES OF ANGIOGENESIS, ONCOGENESIS, INFLAMMATION, APOPTOSIS, AND CELLULAR THERAPY” (Fundacion De La Comunidad Valenciana Centro De …, priority 2008, dated 2009):

What was measured:
HCT116/p53+/+ = assay: clonicity assay, HCT116/p53+/+; format: cell-based; conditions: Homo sapiens, HCT-116; stimulated 72 hours, colonies counted after 10 days; read-out: survival IC50
Description: Clonicity assays were conducted to determine the toxicity of FM19G11 in p53-proficient (HT29 and HCT116/p53^+/+) and p53-deficient (HCT116/p53^-/-) tumor cells. Once the HT-29, HCT116/p53^+/+ and HCT116/p53^-/- cells were adhered to the culture plate, they were stimulated with increasing concentrations of FM19G11 (0.5, 1, 5, 10, 20, 50 µM) for 72 hours. After 10 days of stimulation, the number of colonies formed in the plates of treated and untreated cells was determined.
Results of the clonicity assays of HT29 human colon cancer cells, HCT116 cells treated with FM19G11 were monitored up to 10 after the treatment (Figure 28). The IC50 was determined by extrapolating the percentage with the concentration. FM19G11 was used at concentrations: 0.5, 1, 5, 10, 50, 100, 200 µM

ATR = assay: activation kinetics of ATR (Western blot), HCT116/p53-/-; format: cell-based, human; conditions: 0.5 µM, after 1 hour
Text: To determine the degree of involvement of p53 in the possible effects caused by FM19G11, a HCT116 colon cancer cell line with expression of p53 and the same HCT116 line in which p53 was inactivated by homologous recombination were used (Bunz, F, Dutriaux, A, Lengauer, C, Waldman, T, Zhou, S, Brown, JP et al., (1998) Requirement for p53 and p21 to sustain G2 arrest after DNA damage. Science 282: 1497-501; Bunz, F, Hwang, PM, Torrance, C, Waldman, T, Zhang, Y, Dillehay, L et al., (1999) Disruption of p53 in human cancer cells alters the responses to therapeutic agents. J Clin Invest 104: 263-9.). The HCT116/p53^+/+ and HCT116/p53^-/- cells were exposed to FM19G11 (0.5 µM) at different times, the phosphorylation (activation) pattern of the ATR protein and of p53 which can be phosphorylated by ATR (Tibbetts, RS, Brumbaugh, KM, Williams, JM, Sarkaria, JN, Cliby, WA, Shieh, SY et al., (1999) A role for ATR in the DNA damage-induced phosphorylation of p53. Genes Dev 13: 152-7.), in p53-proficient HCT116 cells, as well as ATR in p53-deficient cells being analyzed (Figure 23). […] This quick activation of ATR coincides with that of p53 in HCT116/p53^+/+ cells after 1 hour of treatment with FM19G11 (0.5 µM), but the activation of p53 remains virtually on the expression of cells without drug, for the different times analyzed.

HCT116/p53+/+ cells = assay: cell cycle distribution by flow cytometry, HCT116/p53+/+; format: cell-based, human
Text: It was investigated if the activation of DDR by FM19G11 caused a delay in the cycle progress through the G1/S phases in HCT116 tumor cells, as has been described for other DNA-damaging agents (.Lim, DS, Kim, ST, Xu, B, Maser, RS, Lin, J, Petrini, JH et al., (2000) ATM phosphorylates p95/nbs1 in an S-phase checkpoint pathway. Nature 404: 613-7.; Jazayeri, A, Falck, J, Lukas, C, Bartek, J, Smith, GC, Lukas, J et al., (2006) ATM- and cell cycle-dependent regulation of ATR in response to DNA double-strand breaks. Nat Cell Biol 8: 37-45; Liu, JS, Kuo, SR, Beerman, TA and Melendy, T, (2003) Induction of DNA damage responses by adozelesin is S phase-specific and dependent on active replication forks. Mol Cancer Ther 2: 41-7; Ranjan, P and Heintz, NH, (2006) S-phase arrest by reactive nitrogen species is bypassed by okadaic acid, an inhibitor of protein phosphatases PP1/PP2A. Free Radic Biol Med 40: 247-59.). The HCT116 p53+/+ and HCT116 p53-/- cells were exposed for 3 or 6 days to the carrier (DMSO) or to FM19G11 (0.5, 1, 5, 10 µM). […] (Figure 24).
A- The HCT116/p53+/+ cells and B-HCT116/p53-/- cells were exposed to different concentrations of FM19G11 (0.5, 1, 5, 10 µM) or carrier for 3 or 6 days to analyze the distribution of cells in the different cell cycle phases by means of flow cytometry. […]

VEGF and COX-2 = assay: qPCR of VEGF and COX-2 in dental pulp stem cells; format: cell-based, human; conditions: 0.5 µM
Text: The culture medium used was Low-Glucose DMEM supplemented with 10% fetal bovine serum. The human dental pulp mesenchymal stem line [Gronthos S, et al., "Postnatal human dental pulp stem cells (DPSCs) in vitro and in vivo" Proc Natl Acad Sci U S A, 2000 Dec 5; 97(25):13625-30.; Gronthos S et al.,." Stem cell properties of human dental pulp stem cells" J Dent Res, 2002 Aug; 81(8):531-5], obtained from human third molars from adults (19-29 years of age), was provided by the Cardioregeneration Dept. of the CIPF. The cells were seeded at a density of 2000 cells/cm^2, and when they reached a 90% confluence they were subcultured again by means of trypsinization.
Total RNA was isolated using the commercial kit RNAeasy (Qiagen) and following the manufacturer's instructions. 1 µg of total RNA of each sample was retrotranscribed using the commercial kit Reverse Transcription Reagent (Applied Biosystem). The quantitative polymerase chain reaction (qPCR) was carried out using Taqman probes and primers designed by Applied Biosystem for hsVEGF (Ref HS00173626_m1), hsCOX-2 (Ref Hs00153133_m1) and hsGAPDH (Ref HS 99999905_m1). […] The expression levels of VEGF and COX-2 were expressed as the increase of Ct with respect to the expression levels of GAPDH (constitutive expression gene): Ct (ΔCt)=Ct (VEGF or […])-Ct (GAPDH). […]

With `Cc1ccc(C(=O)COC(=O)c2cccc(NC(=O)c3ccc([N+](=O)[O-])cc3[N+](=O)[O-])c2)cc1` [FM19G11, 2-oxo-2-(p-tolyl)ethyl 3-((2,4-dinitro)benzamido)benzoate] the IC50 (HCT116/p53+/+) was 3.5 µM, the “phosphorylation of ATR” value (ATR) was “quick increase” and the “G1/S phase cycle arrest” value (HCT116/p53+/+ cells; 5 or 10 µM, after 72 hours, more evident after 6 days) was “caused G1/S phase cycle arrest”. For the same molecule, the “S phase cycle arrest on simultaneous incubation with rapamycin” value (HCT116/p53+/+ cells; FM19G11 (10 µM) + rapamycin (100 pmol)) was “prevented”, the “increase of both VEGF and COX-2 (mRNA)” value (VEGF and COX-2; hypoxic conditions, 6 and 18 hours) was “inhibited” and the “expression levels of VEGF and COX-2” value (VEGF and COX-2; normoxic conditions) was “did not cause any effect”.
